{"source": "patent US10383869B2", "about": "“Treatment with opioid antagonists and mTOR inhibitors” (THE UNIVERSITY OF CHICAGO, priority 2008, dated 2019)", "key": {"[1]": {"system": "human pulmonary microvascular endothelial cells (HPMVEC)", "experiment": "Human pulmonary microvascular EC proliferation assay (VEGF-induced)", "type": "cell-based", "protocol": "Human pulmonary microvascular EC proliferation assay—For measuring cell growth, HPMVEC [5×10^3 cells/well] pretreated with various agents were incubated with 0.2 ml of serum-free media containing 100 nM VEGF for 24 h at 37° C. in 5% CO2195% air in 96-well culture plates. The in vitro cell proliferation assay was analyzed by measuring increases in cell number using the CellTiter96™ MTS assay (Promega, San Luis Obispo, Calif.) and read at 492 nm. Each assay was set up in triplicate, repeated at least five times and analyzed statistically by Student's t test (with statistical significance set at P<0.05).\n(§1) Experiments were performed in triplicate. Error bars=standard deviation.\nas §1"}, "[2]": {"system": "human pulmonary microvascular endothelial cells (HPMVEC)", "experiment": "Human pulmonary microvascular EC migration assay (VEGF-induced, transwell)", "type": "cell-based", "settings": "VEGF 100 nM", "protocol": "Human pulmonary microvascular EC migration assay—Twenty-four transwell units with […] pore size were used for monitoring in vitro cell migration. HPMVEC (˜1×10^4 cells/well) were plated with various treatments to the upper chamber and VEGF (100 nM) was added to the lower chamber. Cells were allowed to migrate for 18 hours. Cells from the upper and lower chamber were quantitated using the CellTiter96™ MTS assay (Promega, San Luis Obispo, Calif.) and read at 492 nm. Percent migration was defined as the # of cells in the lower chamber divided by the number of cells in both the upper and lower chamber. Each assay was set up in triplicate, repeated at least five times and analyzed statistically by Student's t test (with statistical significance set at P<0.05).\nSynergistic effects of MNTX with Temsirolimus on inhibition of VEGF—induced human EC proliferation and migration. Inhibition curves of human EC assayed for VEGF (100 nM)-induced proliferation and migration (24 hours) in the presence or absence of 0.1, 1.0, 10, 100 or 500 nM MNTX, Temsirolimus or 10 nM MNTX+Temsirolimus. MNTX inhibited EC VEGF-induced proliferation with an IC50 of ˜100 nM. Adding 10 nM MNTX to EC shifted the IC50 of Temsirolimus inhibition of VEGF-induced proliferation from ˜10 nM to ˜1 nM. Experiments were performed in triplicate. Error bars=standard deviation. […]"}, "Akt": {"system": "Akt", "experiment": "VEGF-induced Akt activation (phosphorylation) immunoblot in human pulmonary microvascular endothelial cells", "type": "cell-based", "settings": "for VEGF-induced phosphorylation (activation) of Akt at serine 473 and threonine 308: human EC, VEGF 100 nM 5 minutes, 1 hour pre-treatment with 100 nM compound", "procedure": "To assess the effects of methylnaltrexone (MNTX) on the VEGF-induced activation of the serine/threonine kinase Akt, a well-characterized endothelial cell line, human pulmonary microvascular endothelial cells (HPMVEC), was used. HPMVEC were serum starved for one hour and either untreated (control) or treated with VEGF (100 nM, 5 minutes) with or without pre-treatment (1 hour) with 100 nM MNTX, 100 ng/ml bevacizumab, 100 μM 5-FU, 100 nM MNTX+100 ng/ml bevacizumab or 100 nM MNTX+100 μM 5-FU. Cell lysates were obtained, run on SDS-PAGE and immunoblotted with anti-pSer^473Akt, anti-pThr^308Akt, anti-Akt or anti-actin antibody.\nCell Culture and Reagents—Human pulmonary microvascular EC were obtained from Cambrex (Walkersville, Md.) and cultured as previously described (Singleton et al. (2006), Microvasc. Res. 72(1-2):3-11; Singleton et al. (2007), Am. J. Respir. Cell Mol. Biol. 37(2):222-231) in EBM-2 complete medium (Cambrex) at 37° C. in a humidified atmosphere of 5% CO2, 95% air, with passages 6-10 used for experimentation. Unless otherwise specified, reagents were obtained from Sigma (St. Louis, Mo.). Vascular endothelial growth factor (VEGF) was purchased from R&D Systems (Minneapolis, Minn.). Methylnaltrexone bromide (MNTX) was purchased from Mallinckrodt Specialty Chemicals (Phillipsburg, N.J.). Bevacizumab was purchased from Genentech (South San Francisco, Calif.). 5-fluorouracil (5-FU) was purchased from Abraxis Pharmaceutical Products (Schaumburg, Ill.). Naltrexone and rapamycin were purchased from Sigma (St. Louis, Mo.). Reagents for SDS-PAGE electrophoresis were purchased from Bio-Rad (Richmond, Calif.) and Immobilon-P transfer membrane was purchased from Millipore (Millipore Corp., Bedford, Mass.). Rabbit anti-pSer^473Akt, rabbit anti-pThr^308Akt and rabbit anti-Akt antibodies were purchased from Cell Signaling Technologies (Danvers, Mass.). Mouse anti-β-actin antibody was purchased from Sigma (St. Louis, Mo.). Secondary horseradish peroxidase (HRP)-labeled antibodies were purchased from Amersham Biosciences (Piscataway, N.J.). […]"}, "[3]": {"settings": "white crystalline powder, typically the bromide salt, as commercially provided; cited from earlier work"}, "mTOR Complex 2": {"system": "mTOR Complex 2", "experiment": "VEGF-induced mTOR complex formation, anti-Rictor immunoprecipitation and immunoblot", "type": "cell-based", "settings": "human EC, VEGF 100 nM 5 minutes, 1 hour pretreatment with 100 nM compound", "protocol": "(§2) Analysis of mTOR Complex Formation and Regulation of Akt Phosphorylation—Human EC were serum starved for one hour and either untreated (control) or treated with VEGF (100 nM, 5 minutes) with or without pretreatment (1 hour) with 100 nM MNTX or 100 nM Temsirolimus. EC lysates were obtained and immunoprecipitated with anti-Raptor (mTOR Complex 1 component) or anti-Rictor (mTOR complex 2 component) antibody. The immunoprecipitated material was run on SDS-PAGE and immunoblotted with either anti-mTOR, anti-FKBP12, anti-Raptor, anti-SIN1 or anti-Rictor antibody. To investigate the regulation of Akt phosphorylation, human EC were serum starved for one hour and either untreated (control) or treated with VEGF (100 nM, 5 minutes) with or without pretreatment with the PI3 kinase inhibitor, LY294002 (10 μM, 1 hour), Src siRNA or Rictor (mTOR complex 2 component) siRNA. EC lysates were obtained, run on SDS-PAGE and immunoblotted with anti-pSer^473Akt, anti-pThr^308Akt or anti-Akt antibody."}, "[4]": {"system": "T1, mTOR Complex 1 (Homo sapiens)", "T1 construct": "EC lysates were obtained and immunoprecipitated with anti-Raptor (mTOR Complex 1 component); endogenous in cells; host or cells: human endothelial cells (EC)", "experiment": "VEGF-induced mTOR complex formation, anti-Raptor immunoprecipitation and immunoblot", "type": "cell-based", "settings": "human EC, VEGF 100 nM 5 minutes, 1 hour pretreatment with 100 nM compound", "protocol": "as §2"}}, "note": "“And” between values parts separate entries of the source, which are not always exact repeats. Equal entries are not always repeated. Where two headings read alike, the source gives them in different places.", "data": [{"compound": "CN(N=O)c1ccc(O)c(O)c1", "note": "[3,4-dephostatin]", "values": [{"measurement": "effect of PTP inhibitor on VEGF-induced EC proliferation", "setting": "[1]; VEGF 100 nM, 24 hours, with Temsirolimus with or without 10 nM MNTX", "value": "inhibited"}, {"measurement": "effect of PTP inhibitor on VEGF-induced EC migration", "setting": "[2]; 24 hours, with Temsirolimus with or without 10 nM MNTX", "value": "inhibited"}]}, {"compound": "C[N@+]1(CC2CC2)CC[C@]23c4c5ccc(O)c4O[C@H]2C(=O)CC[C@@]3(O)[C@H]1C5", "note": "[methylnaltrexone, N-methylnaltrexone]", "values": [{"measurement": "inhibition of VEGF-induced pSer473Akt and pThr308Akt immunoreactivity, dose relation", "setting": "Akt; 1.0, 10, 100, 1000 nM MNTX", "value": "dose-dependent"}, {"measurement": "VEGF-induced phosphorylation (activation) of Akt at serine 473 and threonine 308", "setting": "Akt", "value": "abrogated"}, {"measurement": "solubility in water", "setting": "[3]", "value": "freely soluble in water"}, {"measurement": "VEGF-induced formation of mTOR Complex II", "setting": "mTOR Complex 2", "value": "inhibits"}, {"measurement": "IC50", "setting": "[1]; Homo sapiens, Endothelial cell, 24 h, read-out: IC50 of inhibition of VEGF-induced EC proliferation", "value": "~100", "unit": "nM"}, {"measurement": "VEGF-induced formation of mTOR Complex I", "setting": "[4]", "value": "inhibits"}]}, {"compound": "CO[C@H]1C[C@@H]2CC[C@@H](C)[C@@](O)(O2)C(=O)C(=O)N2CCCC[C@H]2C(=O)O[C@H]([C@H](C)C[C@@H]2CC[C@@H](OC(=O)C(C)(CO)CO)[C@H](OC)C2)CC(=O)[C@H](C)/C=C(\\C)[C@@H](O)[C@@H](OC)C(=O)[C@H](C)C[C@H](C)/C=C/C=C/C=C/1C", "note": "[temsirolimus]", "values": [{"measurement": "VEGF-induced phosphorylation (activation) of Akt at serine 473 and threonine 308", "setting": "Akt", "value": "did not inhibit"}, {"measurement": "VEGF-induced formation of mTOR Complex II", "setting": "mTOR Complex 2", "value": "inhibits"}, {"measurement": "IC50", "setting": "[1]; VEGF 100 nM, 24 hours, compound alone, read-out: IC50 of inhibition of VEGF-induced EC proliferation", "value": "~10 nM and 10 nM"}, {"measurement": "IC50", "setting": "[1]; VEGF 100 nM, 24 hours, plus 10 nM MNTX, read-out: IC50 of inhibition of VEGF-induced EC proliferation with 10 nM MNTX added", "value": "~1", "unit": "nM"}, {"measurement": "IC50", "setting": "[1]; VEGF 100 nM, 24 hours, presence of 3,4-Dephostatin, read-out: IC50 of inhibition of VEGF-induced EC proliferation in the presence of 3,4-Dephostatin", "value": 15, "unit": "nM"}, {"measurement": "VEGF-induced formation of mTOR Complex I", "setting": "[4]", "value": "mTOR complex II only"}]}, {"compound": "rapamycin", "values": [{"measurement": "inhibition of VEGF-induced endothelial cell proliferation", "setting": "[1]; VEGF 100 nM, 0.01, 0.1, 1.0 or 10 nM rapamycin", "value": "dose-dependent inhibition"}, {"measurement": "inhibition of VEGF-induced endothelial cell migration", "setting": "[2]; 0.01, 0.1, 1.0 or 10 nM rapamycin", "value": "dose-dependent inhibition"}]}]}
